Measured values from PubChem BioAssay AID492970 (The Scripps Research Institute Molecular Screening Center, 2010).

Target: Protein-arginine deiminase type-4 (Homo sapiens) (UniProt Q9UM07)
Assay: human PAD4 inhibitor potency, dose response, biochemical, fluorescence readout (AID 492970)
Conditions: recombinant PAD4, BAEE citrulline colorimetric readout

Protein-arginine deiminase type-4 (Homo sapiens), sequence (Q9UM07 whole entry, looked up): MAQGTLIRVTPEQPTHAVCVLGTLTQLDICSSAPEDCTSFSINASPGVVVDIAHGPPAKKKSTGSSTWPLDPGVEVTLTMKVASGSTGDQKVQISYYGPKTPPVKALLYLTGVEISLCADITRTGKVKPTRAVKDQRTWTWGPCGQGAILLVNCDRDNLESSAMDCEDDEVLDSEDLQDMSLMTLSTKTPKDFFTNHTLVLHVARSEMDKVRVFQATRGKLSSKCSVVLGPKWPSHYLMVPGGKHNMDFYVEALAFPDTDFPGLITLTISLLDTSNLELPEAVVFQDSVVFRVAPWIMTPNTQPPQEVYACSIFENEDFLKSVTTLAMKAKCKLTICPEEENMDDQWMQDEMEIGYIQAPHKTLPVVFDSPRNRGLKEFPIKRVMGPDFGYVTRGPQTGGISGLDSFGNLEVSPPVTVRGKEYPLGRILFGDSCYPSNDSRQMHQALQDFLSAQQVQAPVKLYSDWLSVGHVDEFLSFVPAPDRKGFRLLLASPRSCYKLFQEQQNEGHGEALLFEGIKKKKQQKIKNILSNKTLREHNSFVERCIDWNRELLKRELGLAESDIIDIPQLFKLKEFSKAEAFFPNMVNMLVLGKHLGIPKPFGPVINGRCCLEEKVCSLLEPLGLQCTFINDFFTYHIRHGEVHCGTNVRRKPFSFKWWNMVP

## COC1=C(N)C(=O)c2nc(-c3nc(C(=O)O)c(C)c(-c4ccc(OC)c(OC)c4O)c3N)ccc2C1=O
  IC50: 2.5 µM
